Measured values: the SangsterLogP compilation
One block for each compound: values may come before it.

Legend:
[1] = method code SF-HPLC, from DOI: 10.1002/etc.5620170216
[2] = method code SF-GLC, from DOI: 10.1002/etc.5620080702
[3] = method code SF-RC, from DOI: 10.1016/j.nucmedbio.2009.03.005, PMID: 19647167; settings: pH 7.4
[4] = not given; remark: listed apart in the source
[5] = method code SF-HPLC, from DOI: 10.1021/jm970790w, PMID: 9548821; settings: pH 7.4
[6] = method code SF-RC, from DOI: 10.1007/bf00263256, PMID: 6394334
[7] = not given; remark: listed apart in the source
[8] = method code SF-RC, from PMID: 892676
[9] = method code SF-RC, from DOI: 10.1021/jm8013376, PMID: 19216563; settings: pH 7.4
[10] = method code SF-HPLC, from DOI: 10.3109/03639045.2012.690417, PMID: 22670797
[11] = not given; remark: listed apart in the source
[12] = method code SF, from DOI: 10.1016/s0021-9673(00)89463-7; settings: pH 2.4
[13] = not given; remark: listed apart in the source
[14] = method code SF-RC, from DOI: 10.1002/syn.20147; settings: pH 7.4
[15] = method code SF-AS, from DOI: 10.1002/em.2850200210, PMID: 1505530
[16] = not given; remark: listed apart in the source
[17] = method code SF-AS, from DOI: 10.1211/0022357001773940, PMID: 10757413; settings: pH 7.4
[18] = method code SF-AS, from DOI: 10.1002/jps.2600751012, PMID: 3795027
[19] = not given; remark: listed apart in the source
[20] = method code SF-HPLC, from DOI: 10.1021/je049947x
[21] = not given; remark: listed apart in the source
[22] = method code SF-AS, from PMID: 582409; settings: pH 7.4
[23] = method code …, from Pirumyan, G.; Martiryan, A.; Skurlator, Yu.; Petrosyan, D.; Akhnazaryan, A.; Arutyunyan, V. (1988). Transformations of pyrazolone compounds for fish farming in aqueous medium. Chemical Journal of …
[24] = not given; remark: listed apart in the source
[25] = method code SF-AS, from DOI: 10.1081/jlc-100104900; settings: pH 1.0
[26] = not given; remark: listed apart in the source
[27] = method code SF-HPLC, from DOI: 10.1016/s0223-5234(97)84356-5
[28] = not given; remark: listed apart in the source
[29] = not given; remark: listed apart in the source
[30] = not given; remark: listed apart in the source
[31] = method code SF-RC, from DOI: 10.1016/j.apradiso.2005.06.012, PMID: 16131471; settings: pH 7.5
[32] = method code SF-AS, from DOI: 10.1021/jm00001a010, PMID: 7837239; settings: pH 7.0
[33] = from Maeno, S., Miura, I., Masuda, K., & Nagata, T. (1990). Mepanipyrim(KIF-3535), a new pyrimidine fungicide. In Brighton Crop Protection Conference, Pests and Diseases - 1990 (Vol. 2, pp. 415-422). …
[34] = not given; remark: listed apart in the source
[35] = not given; remark: listed apart in the source
[36] = not given; remark: listed apart in the source
[37] = not given; remark: listed apart in the source
[38] = method code SF-RC, from PMID: 7826467
[39] = method code SF, from DOI: 10.1016/0048-3575(89)90162-4
[40] = method code SF, from DOI: 10.1016/j.ejps.2007.04.003, PMID: 17540545; settings: pH 3.0
[41] = method code SF-GLC, from DOI: 10.1016/s0380-1330(82)71969-0
[42] = not given; remark: listed apart in the source
[43] = method code SF-AS, from DOI: 10.1211/0022357011776199, PMID: 11428660; settings: pH 7.4
[44] = not given; remark: listed apart in the source
[45] = not given; remark: listed apart in the source
[46] = method code SF, from DOI: 10.1248/cpb.34.4787
[47] = method code SF-AS, from DOI: 10.1584/jpestics.8.69
[48] = method code SF, from He, J.; Lang, L.; Zhang, Q.; Dong, L.; Chen, F.; Xu, G. (2010). Study on physicochemical properties of helicid. China Pharmacy, (1)23-25.; settings: pH 2.0
[49] = method code SF-TN, from DOI: 10.1002/jps.2600741210, PMID: 4087196; settings: pH 7.4
[50] = method code SF, from DOI: 10.1016/0223-5234(96)89550-x
[51] = not given; remark: listed apart in the source

- logP [1]: 4.68
SMILES: c1ccc2cc3ccccc3cc2c1

- logP [2]: 4.54
SMILES: Clc1ccc(C2OC2c2ccccc2)cc1 (configuration not stated)

- logD [3]: 2.11
SMILES: CO/N=C1/C=C(C#Cc2cccc(F)n2)CCC1

SMILES: CC(C)c1cccc(C(C)C)c1O
- logP: 3.63

SMILES: CCOP(=O)(OCC)Oc1cc(C)nc(NC(C)C)n1
- logP [4]: 2.07

- logD [5]: 0.53
SMILES: CC1(C)O[C@@H]2[C@@H](CO[C@@]3(COS(N)(=O)=O)OC(C)(C)O[C@@H]23)O1

- logP [6]: 1.76
SMILES: CC(=NO)C(C)(C)NCCCNC(C)(C)C(C)=NO

- logP [7]: 0.98
SMILES: CCn1cc(C(=O)O)c(=O)c2cc([N+](=O)[O-])c(NCCO)cc21

- logP [8]: 2.93
SMILES: O=C(Nc1ccc(Cl)cc1)Nc1ccc(Cl)c(C(F)(F)F)c1

- logD [9]: 2.48
SMILES: Oc1ccc2nc(-c3ccccc3)sc2c1

- logP [10]: 3.9
SMILES: CC(C)(C)c1ccc(/C=N/NC(N)=S)cc1

- logP [11]: 6.38
SMILES: Cc1cc(Cc2cc(Cl)ccc2Cl)c(Cl)cc1Cl

- logD [12]: 3.12
SMILES: O=C(O)c1ccc2oc3ccccc3c(=O)c2c1

SMILES: FCCCN1CCC[C@H]1COc1cccnc1
- logP [13]: 2.2

- logD [14]: 3.4
SMILES: Cc1cc(C#N)cc(C#Cc2csc(C)n2)c1

SMILES: O=C1c2ccccc2-c2cc([N+](=O)[O-])ccc21
- logP [15]: 3.06

- logP [16]: 1.2
SMILES: CCCCCCn1c(=O)c2c(ncn2C)n(C)c1=O

- logD [17]: -0.32
SMILES: CCc1c(O)c(=O)ccn1CCCn1ccnc1

- logP [18]: 2.4
SMILES: O=C(OCc1ccccc1)c1cccnc1

- logP [19]: 1.43
SMILES: N#Cc1ccc(NS(=O)(=O)c2ccc(N)cc2)cc1

SMILES: Cc1cccc(C)c1N(Cn1cccn1)C(=O)CCl
- logP [20]: 2.22

- logP [21]: 3.6
SMILES: Fc1cccc(-n2nnnc2Oc2ccccc2)c1

- logD [22]: 1.19
SMILES: COc1ccc(-c2nc3c(N)nc(N)nc3nc2N)cc1

- logP [23]: 0.26
SMILES: CC1(C)CC(=O)NN1C=NNc1ccccc1

SMILES: O=[N+]([O-])c1ccc(Oc2ccc(C(F)(F)F)cc2[N+](=O)[O-])cc1
- logP [24]: 3.7

- logD [25]: 2.86
SMILES: CC(C(=O)O)c1ccc(C(=O)c2ccccc2)s1 (configuration not stated)

- logP [26]: 3.95
SMILES: O=C(O)c1cc(-c2ccc(F)cc2F)ccc1O

- logP [27]: -0.83
SMILES: CC(=O)Nc1nc2c(ncn2COCCOC(C)=O)c(=O)[nH]1

- logP [28]: 2.91
SMILES: Cn1ccc2cc(-c3nc4ccc(F)nc4o3)cnc21

- logP [29]: -1.7
SMILES: Nc1ccc(C=Cc2ccc(N)cc2S(=O)(=O)O)c(S(=O)(=O)O)c1

- logP [30]: 0.63
SMILES: CCOC(=O)CCCn1c(=O)oc2ccccc2c1=O

- logD [31]: 2.52
SMILES: COc1ccc2[nH]c(I)c(CCNC(C)=O)c2c1

- logD [32]: 1.75
SMILES: C=CCn1cnc2c(=O)[nH]c(Nc3ccccc3)nc21

SMILES: CC#Cc1cc(C)nc(Nc2ccccc2)n1
- logP [33]: 3.42

SMILES: Cc1cc2cccc(C)c2cc1C
- logP [34]: 4.73

SMILES: Clc1ccc(C(c2ccc(Cl)cc2)C(Cl)Cl)cc1
- logP [35]: 5.19

- logP [36]: 3.56
SMILES: O=C(OCc1ccccc1)c1ccc(O)cc1

- logP [37]: 2.62
SMILES: CCNc1ccc(C(=O)OCCN(C)C)cc1

- logP [38]: 2.84
SMILES: COc1ccc2c(C)cc(=O)n3c(C)cc1c23

- logP [39]: 3.24
SMILES: OC1(c2cc(Cl)ccc2Cl)CCCCC1n1cncn1 (configuration not stated)

SMILES: CCn1cc(C(=O)O)c(=O)c2cc3c(cc21)OCO3
- logD [40]: 1.01

SMILES: Clc1ccc(C(c2ccc(Cl)cc2)C(Cl)(Cl)Cl)cc1
- logP [41]: 5.1

SMILES: O=c1[nH]c2c(c(=O)n1C1CCCCC1)CCC2
- logP [42]: 1.9

- logD [43]: 0.51
SMILES: Cc1ncc([N+](=O)[O-])n1CCOC(=O)CN1CCCCC1

- logP [44]: 5.24
SMILES: CCCCCCc1ccccc1

- logP [45]: 3.5
SMILES: O=C(Oc1ccccc1)c1ccccc1

- logP [46]: 3.75
SMILES: O=C(O)c1ccc(-c2ccccc2)cc1

- logP [47]: 4.51
SMILES: ClC(Cl)C(c1ccccc1)c1ccccc1

- logD [48]: -1.08
SMILES: O=Cc1ccc(O[C@@H]2O[C@H](CO)[C@@H](O)[C@@H](O)[C@H]2O)cc1

- logD [49]: 1.8
SMILES: CCCCOC(=O)[C@@H](N)Cc1ccc(O)cc1

- logP [50]: 0.84
SMILES: O=C(Nc1ccn(C2CSC(CO)O2)c(=O)n1)c1cccnc1 (configuration not stated)

SMILES: CCC(C)c1ccccc1OC(=O)NC (configuration not stated)
- logP [51]: 2.8
